Results: article PMC3003687, “α-Galactosylceramide Analogs with Weak Agonist Activity for Human iNKT Cells Define New Candidate Anti-Inflammatory Agents” (PLoS ONE, 2010)

Assays:
human iNKT cell clones = assay: Cytokine ELISA of human iNKT cell clones stimulated with glycolipid-pulsed CD1d-transfected HeLa cells; type: cell-based; settings: for EC50: Homo sapiens, iNKT, HDD3 clone, IL-4 levels did not reach a plateau; for iNKT cell clone cytokine response / agonist activity: dose range, IFNγ, IL-4, IL-13, clones HDD3, HDD11, HDE3, HDA7
Procedure: Capture ELISA assays were used for measurement of cytokine responses of human iNKT cells to αGalCer analogs. One day prior to the experiment, CD1d transfected HeLa cells were plated at 25×10^3 cells/well in 100 µL of medium in flat-bottom 96 well plates. Glycolipids were then added in 100 µL of medium to give final concentrations ranging from 0.05 to 10^4 nM. The APCs were incubated for approximately 18 hours with the glycolipids and then irradiated (10,000 Rad) and washed twice with PBS prior to addition of 25×10^3 iNKT cells well in 300 µL. Supernatants were harvested after 24 hours of co-culture and stored frozen at -20°C. After thawing, aliquots of the supernatants were assayed for specific cytokines by ELISA using capture and biotin-labeled detection antibody pairs specific for GM-CSF, IL-2, IL-4, IL-12p70 and IL-13 (all obtained from BD Biosciences), IFNγ (Thermo-Scientific) or IL-18 (MBL). Specific signals were developed using HRP- conjugated streptavidin (BD Biosciences) and Turbo TMB substrate (Thermo-Scientific). Supernatants were tested pure and/or diluted to give values within a quantitative linear standard curve generated with recombinant cytokines. Curves of dose-dependent cytokine responses and graphs were plotted using the Graphpad Prism Software. EC50 values were calculated using the function log (agonist) response with variable slope, and statistical analyses were carried out using the same software. To calculate concentration-dependent cytokine ratios, IL-4/IFNγ and IL-13/IFNγ ratios were calculated using cytokine values from which background levels (i.e. levels in cultures receiving DMSO vehicle alone) were subtracted. Ratios were calculated by dividing IL-4 or IL-13 concentrations in pg/mL by IFNγ concentration in ng/mL.

hCD1d = target: T1, hCD1d (Homo sapiens, UniProt P15813); assay: Loading of hCD1d tetramers with variable glycolipid to CD1d ratios; type: binding; settings: for lipid excess at which tetramers were efficiently loaded: 20 nM tetramers, 25 to 1000 fold molar excess of glycolipid to hCD1d, HDD3 clone
T1 construct: we generated soluble and fluorescent tetrameric hCD1d molecules loaded with each of the glycolipid analogs; made in house
From the text: (§1) To characterize in more detail the iNKT cell TCR recognition of αGalCer analogs presented by human CD1d, we generated soluble and fluorescent tetrameric hCD1d molecules loaded with each of the glycolipid analogs. […] This was similar to the previously reported failure of mouse CD1d tetramer loaded with lysosulfatide to bind detectably to murine non-invariant and sulfatide specific NKT cells, despite a clear reactivity to this lipid upon presentation by APCs; [40]. […] To quantitate their binding avidities to iNKT cell TCRs, we used titration of analog-loaded hCD1d tetramers to determine equilibrium dissociation constants (KD), which are inversely proportional to avidity (Figure 3A and 3B).
(§2) Figure 3 Characterization of human iNKT cell TCR interactions with analog-loaded tetramers. (A) iNKT cell clones were stained with titrated amounts of hCD1d tetramers loaded with the indicated glycolipids (abbreviations as in legend to Figure 1), and the measured MFI values are plotted for selected glycolipids. (B) The equilibrium dissociation constants (KD, inversely proportional to TCR avidity) were determined as the concentrations of tetramers required to yield 50% of maximal binding. Data shown were obtained using the CD4^+ iNKT cell clone HDD3, and similar results (not shown) were obtained with a second CD4^+ clone (HDD11) and a CD4^−8^− double negative iNKT cell clone (HDE3). (C) Analysis of iNKT cell clones labeled with 20 nM of hCD1d tetramers which were loaded with variable excesses of analog to constant hCD1d (25 to 1000 fold molar excess of glycolipid to hCD1d protein). The measured MFI values were normalized as the percent of the maximum staining intensity obtained with each analog loaded tetramer. Data presented were generated with HDD3 (CD4+) iNKT cell clone, and similar results (not shown) were obtained with HDE3 (DN) clone.

[1] = system: human iNKT cells and NK cells; assay: In vitro transactivation assay (CFSE-labeled iNKT cells co-cultured with PBMC); type: cell-based; settings: 24 h; for IL-12 levels in supernatants / IL-13 levels in supernatants / IL-18 levels in supernatants / global IFNγ production in supernatants / ability to activate iNKT cells and stimulate NK cell transactivation (IFNγ+ cells): 100 nM; for IL-12 levels in supernatants / IL-13 levels in supernatants / IL-18 levels in supernatants / global IFNγ production in supernatants: ELISA; for ability to activate iNKT cells and stimulate NK cell transactivation (IFNγ+ cells): iNKT/PBMC 1/10, compared with KRN7000
Procedure: iNKT cells were stained for 5 minutes with 1–20 µM of CFSE (Molecular probes) and 5% FCS in PBS and washed twice. As a positive control, a fraction of CFSE-labeled iNKT cells were preactivated for 30 minutes with 1 µg/mL of PMA and 250 ng/mL of Ionomycin (Sigma-Aldrich) in culture medium and extensively washed. The experiment was initiated by adding CFSE-labeled unstimulated or PMA/Ionomycin-preactivated iNKT cells to freshly prepared PBMC pulsed with vehicle or αGalCer analogs at the indicated concentrations and at an iNKT/PBMC ratio of 1/10 or 1/40. Supernatants and cells were harvested from parallel conditions after the indicated time of co-culture. For intracellular cytokine staining, brefeldin A (Golgiplug, BD Biosciences) was added 4 h before harvesting the cells, which were fixed with 1% paraformaldehyde and permeabilized with 0.1% saponin (Sigma-Aldrich) prior to mAb staining. Experiments with blocking antibodies were performed with 10 µg/mL of preservative-free mAbs, including isotype matched control, anti-IL-2, anti-IL-12, anti-IFNγ and anti-CD40L (all from BD Biosciences) or anti-IL-18 (MBL). For detection of CD40L expression by iNKT cells, co-cultures of iNKT and PBMC were prepared as above, except that monensin (Golgistop, BD Biosciences) and fluorescent CD40L specific mAb (1/10 or 1/20 final dilution) were added at the beginning of the experiment, as previously described.
Figure 6 A novel in vitro “transactivation assay” to assess the ability of human iNKT cells to activate other leukocytes. (A) Format for analysis of transactivation of bystander leukocytes. Flow cytometric analysis was carried out for culture containing iNKT cells co-cultured for 24 hours with fresh human PBMC at a 1/10 ratio. For the intracellular detection of IFNγ, Brefeldin A was added for the last 4 hours. Representative electronic gating is shown for the discrimination of CFSE-labeled iNKT cells, B cells, T cells, and NK cells to measure IFNγ expression (or CD69 expression, not shown). Filled black histograms show staining with vehicle control and are overlaid with open gray histograms for stimulation with 100 nM of KRN7000. (B) Dose-dependent IFNγ and CD40L expression by iNKT cells (top and middle graph, respectively) and IFNγ production by transactivated NK cells (bottom graph), after 24 h of co-culture of CFSE-labeled iNKT cells and PBMCs at a 1/10 ratios and the indicated concentration of either KRN7000 (black filled circles) or the adamantanoyl (AD) analog (open circles). Data are presented for a CD4^+ clone (HDD3), and similar results (not shown) were obtained with a DN clone (HDE3). (C) Effect of specific blockade of various cytokines and CD40L on the activation of iNKT cells and transactivated NK cells. CFSE-labeled iNKT cells and PBMCs were co-cultured at a 1/40 ratio for the indicated time, in the presence of KRN7000 at 25 nM and 10 µg/mL of isotype matched control or specific blocking antibodies as indicated. Average percentages of IFNγ^+ iNKT cells and NK cells, assessed by intracellular staining at 24, 48 and 66 hours, are indicated in the left and right plots, respectively.
Figure 7 Comparison of αGalCer analogs for their ability to induce NK cell transactivation. (A) iNKT cell clones were co-cultured for 24 hours with fresh human PBMC at a 1/10 ratio with 100 nM of the indicated analogs, and Brefeldin A was added for the last 4 hours. The percentages of IFNγ^+ iNKT cells (open bars) and IFNγ^+ NK cells (filled bars) are indicated. Cytokine levels were assessed by ELISA in supernatants from identical conditions in absence of Brefeldin A treatment: (B) IFNγ levels (open bars) and IL-13 levels (filled bars); the detection limit was 82.3 ng/mL for both cytokines. (C) IL-12 levels (open bars) and IL-18 levels (filled bars); the detection limit was 27.4 ng/mL. Results obtained with a CD4^+ clone (HDD3) are presented, and similar data (not shown) were obtained with a DN clone (HDE3).

Human iNKT TCRs = Human iNKT TCRs (Homo sapiens, UniProt A0A075B6N4+A0A0B4J240+P15813); assay: Equilibrium binding of analog-loaded hCD1d tetramers to iNKT cell clones
From the text: For flow cytometric analysis, 6B11 (Vα24Jα18 specific) and mAbs specific for human CD3, CD4, CD8α, CD19, CD40L (CD154), CD56, CD69, GM-CSF & IFNγ were obtained from BD Biosciences. IL-4 and IL-13 specific mAbs were from Biolegend. Vα24 (C15) and Vβ11 (C21) specific mAb were from Immunotech. For antibody blocking in culture assays, non-specific isotype matched control, IL-2, IFNγ, IL-12p70 and CD40L specific mAbs without preservatives were obtained from BD Biosciences and IL-18 specific mAb from Medical & Biological Laboratories (MBL, Nagoya, Japan). Phycoerythrin and allophycocyanin labeled human CD1d tetramers were prepared in our laboratory as previously described. Curves of tetramer equilibrium binding constants and graphs were plotted using the Graphpad Prism Software (Version 5). KD values were calculated using the function non-linear fit (hyperbola, one binding site).
as §1, §2

human iNKT cells = settings: cited from earlier work

| SMILES | EC50 (human iNKT cell clones) | lipid excess at which tetramers were efficiently loaded (hCD1d) | binding to hCD1d (hCD1d) | IL-12 levels in supernatants [1] | IL-13 levels in supernatants [1] | IL-18 levels in supernatants [1] | global IFNγ production in supernatants [1] | ability to activate iNKT cells and stimulate NK cell transactivation (IFNγ+ cells) [1] | CD40L and IFNγ expression by iNKT cells ([1]; iNKT/PBMC 1/10, dose range) | reactivity of HDD3 iNKT cell clone (human iNKT cell clones; CD4+ clone HDD3) | reactivity of a fraction of the iNKT cell clones tested (human iNKT cell clones; primarily IL-13 production, limited induction of IFNγ) | clones with detectable reactivity (human iNKT cell clones; six clones tested) | staining of iNKT cell clones by analog-loaded hCD1d tetramers (Human iNKT TCRs) | stimulation of human iNKT cells in culture (human iNKT cells) | iNKT cell clone cytokine response / agonist activity (human iNKT cell clones) |
| --- | --- | --- | --- | --- | --- | --- | --- | --- | --- | --- | --- | --- | --- | --- | --- |
| CCCCCCCCCCCCCCCCCCCCCCCCCC(=O)N[C@@H](CC[C@H]1O[C@H](CO)[C@H](O)[C@H](O)[C@H]1O)[C@H](O)[C@H](O)CCCCCCCCCCCCCC [C-glycoside] |  |  |  |  |  |  |  |  |  | did not display detectable reactivity | weak, but detectable, reactivity | Two clones out of six clones tested | only a weak staining intensity of a subset of iNKT cell clones tested | only weakly stimulatory |  |
| CCCCCCCCCCCCCC[C@@H](O)[C@@H](O)[C@H](CO[C@H]1O[C@H](CO)[C@H](O)[C@H](O)[C@H]1O)NC(=O)c1ccc(F)c(F)c1 [DFB] | > 10 µM | much higher lipid excess was necessary | weak binding to hCD1d | undetectable | lower, but still detectable, IL-13 levels | remained low | lower global IFNγ production | lower degree of iNKT cell activation with a limited transactivation of NK cells |  |  |  |  |  |  |  |
| CCCCCCCCCCCCCC[C@@H](O)[C@@H](O)[C@@H](N)CO[C@H]1O[C@H](CO)[C@H](O)[C@H](O)[C@H]1O [Lyso] |  |  |  | undetectable | lower, but still detectable, IL-13 levels | remained low | lower global IFNγ production | lower degree of iNKT cell activation with a limited transactivation of NK cells |  |  |  |  | failed to detectably stain any of our iNKT cell clones |  | substantially lower iNKT cell response |

The next lines start with results.

| EC50 (human iNKT cell clones) | lipid excess at which tetramers were efficiently loaded (hCD1d) | binding to hCD1d (hCD1d) | SMILES | IL-12 levels in supernatants [1] | IL-13 levels in supernatants [1] | IL-18 levels in supernatants [1] | global IFNγ production in supernatants [1] | ability to activate iNKT cells and stimulate NK cell transactivation (IFNγ+ cells) [1] | CD40L and IFNγ expression by iNKT cells ([1]; iNKT/PBMC 1/10, dose range) | reactivity of HDD3 iNKT cell clone (human iNKT cell clones; CD4+ clone HDD3) | reactivity of a fraction of the iNKT cell clones tested (human iNKT cell clones; primarily IL-13 production, limited induction of IFNγ) | clones with detectable reactivity (human iNKT cell clones; six clones tested) | staining of iNKT cell clones by analog-loaded hCD1d tetramers (Human iNKT TCRs) | stimulation of human iNKT cells in culture (human iNKT cells) | iNKT cell clone cytokine response / agonist activity (human iNKT cell clones) |
| --- | --- | --- | --- | --- | --- | --- | --- | --- | --- | --- | --- | --- | --- | --- | --- |
| > 10 µM | 25–50 fold |  | CCCCCCCCCCCCCC[C@@H](O)[C@@H](O)[C@H](CO[C@H]1O[C@H](CO)[C@H](O)[C@H](O)[C@H]1O)NC(=O)C12CC3CC(CC(C3)C1)C2 [AD] | undetectable | lower, but still detectable, IL-13 levels | remained low | lower global IFNγ production | lower degree of iNKT cell activation with a limited transactivation of NK cells | induced with high doses |  |  |  |  |  |  |
| > 10 µM | 25–50 fold |  | CCCCCCCCCCCCCC[C@@H](O)[C@@H](O)[C@H](CO[C@H]1O[C@H](CO)[C@H](O)[C@H](O)[C@H]1O)NC(=O)c1cccc(Br)c1 [BB] | undetectable | lower, but still detectable, IL-13 levels | remained low | lower global IFNγ production | lower degree of iNKT cell activation with a limited transactivation of NK cells |  |  |  |  |  |  |  |
|  | 25–50 fold |  | CCCCCCCCCCCCCC[C@@H](O)[C@@H](O)[C@H](CO[C@H]1O[C@H](CO)[C@H](O)[C@H](O)[C@H]1O)NC(=O)c1ccc(C)cc1 [Tol] | detectable IL-12 generation | high IL-13 levels | enhanced IL-18 levels compared to vehicle control | high global production of IFNγ |  |  |  |  |  |  |  | substantially lower iNKT cell response |
